The target in test [1] is T1, DNA polymerase iota (Homo sapiens) (UniProt Q9UNA4).
T1 sequence (whole entry): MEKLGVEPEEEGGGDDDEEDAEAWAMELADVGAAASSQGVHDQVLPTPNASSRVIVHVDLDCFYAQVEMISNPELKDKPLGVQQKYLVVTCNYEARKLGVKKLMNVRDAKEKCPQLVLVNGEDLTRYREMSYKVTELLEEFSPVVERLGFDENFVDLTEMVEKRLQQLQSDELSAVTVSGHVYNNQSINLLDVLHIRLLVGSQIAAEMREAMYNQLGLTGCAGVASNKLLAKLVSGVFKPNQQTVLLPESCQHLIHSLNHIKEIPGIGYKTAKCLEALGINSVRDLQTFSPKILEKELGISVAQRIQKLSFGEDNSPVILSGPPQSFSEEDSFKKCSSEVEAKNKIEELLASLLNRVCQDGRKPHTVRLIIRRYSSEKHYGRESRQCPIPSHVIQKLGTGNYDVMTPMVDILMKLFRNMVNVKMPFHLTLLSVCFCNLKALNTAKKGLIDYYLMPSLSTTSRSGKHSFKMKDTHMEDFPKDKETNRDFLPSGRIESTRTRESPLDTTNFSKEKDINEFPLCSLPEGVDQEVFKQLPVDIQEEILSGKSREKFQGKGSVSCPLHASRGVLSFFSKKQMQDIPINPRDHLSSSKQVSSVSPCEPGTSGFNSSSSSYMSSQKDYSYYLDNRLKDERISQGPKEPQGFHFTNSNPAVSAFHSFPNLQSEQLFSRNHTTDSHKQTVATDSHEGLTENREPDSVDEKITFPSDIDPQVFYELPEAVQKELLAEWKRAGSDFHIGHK
As to the kind of experiment: Inhibition of human DNA polymerase iota at 100 uM.

For test [2], the target named is Deoxyribonuclease-1 (Bos taurus) (UniProt P00639). As to the kind of experiment: Inhibition of bovine deoxyribonuclease 1 at 100 uM.
In test [3] the target is Polynucleotide kinase (Enterobacteria phage T4) (UniProt P06855). The experiment in a line: Inhibition of T4 polynucleotide kinase at 100 uM. The settings on record: Tequatrovirus T4.
The target in another test is DNA polymerase beta (Rattus norvegicus, UniProt P06766). As to the kind of experiment: Inhibition of rat DNA polymerase beta.
The target of another test is T2, DNA polymerase kappa (Homo sapiens, UniProt Q9UBT6).
T2 sequence (Q9UBT6 whole entry): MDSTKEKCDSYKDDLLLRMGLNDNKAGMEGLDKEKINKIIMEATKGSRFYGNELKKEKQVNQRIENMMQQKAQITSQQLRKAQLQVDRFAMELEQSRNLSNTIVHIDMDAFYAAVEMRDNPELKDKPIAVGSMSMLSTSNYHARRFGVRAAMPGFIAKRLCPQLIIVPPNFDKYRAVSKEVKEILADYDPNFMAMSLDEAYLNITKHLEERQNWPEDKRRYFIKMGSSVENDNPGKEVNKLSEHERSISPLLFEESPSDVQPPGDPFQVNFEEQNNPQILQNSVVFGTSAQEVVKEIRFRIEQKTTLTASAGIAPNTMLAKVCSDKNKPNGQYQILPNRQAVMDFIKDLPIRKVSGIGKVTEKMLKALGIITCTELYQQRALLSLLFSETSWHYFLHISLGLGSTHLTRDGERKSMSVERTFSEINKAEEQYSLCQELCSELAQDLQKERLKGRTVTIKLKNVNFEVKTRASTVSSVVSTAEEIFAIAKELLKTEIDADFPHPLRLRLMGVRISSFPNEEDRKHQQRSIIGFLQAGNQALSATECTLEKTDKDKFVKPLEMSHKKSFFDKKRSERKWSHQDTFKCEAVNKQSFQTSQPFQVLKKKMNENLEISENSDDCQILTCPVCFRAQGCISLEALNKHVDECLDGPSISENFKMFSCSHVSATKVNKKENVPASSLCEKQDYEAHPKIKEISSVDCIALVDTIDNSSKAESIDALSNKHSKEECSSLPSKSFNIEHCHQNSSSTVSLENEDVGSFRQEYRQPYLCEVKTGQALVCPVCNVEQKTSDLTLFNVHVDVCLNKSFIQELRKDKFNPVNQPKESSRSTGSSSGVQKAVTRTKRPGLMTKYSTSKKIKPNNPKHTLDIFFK
As to the kind of experiment: Inhibition of human DNA polymerase kappa.

Test [4] deals with T3, DNA topoisomerase 1 (Homo sapiens) (UniProt P11387).
T3 sequence (whole entry): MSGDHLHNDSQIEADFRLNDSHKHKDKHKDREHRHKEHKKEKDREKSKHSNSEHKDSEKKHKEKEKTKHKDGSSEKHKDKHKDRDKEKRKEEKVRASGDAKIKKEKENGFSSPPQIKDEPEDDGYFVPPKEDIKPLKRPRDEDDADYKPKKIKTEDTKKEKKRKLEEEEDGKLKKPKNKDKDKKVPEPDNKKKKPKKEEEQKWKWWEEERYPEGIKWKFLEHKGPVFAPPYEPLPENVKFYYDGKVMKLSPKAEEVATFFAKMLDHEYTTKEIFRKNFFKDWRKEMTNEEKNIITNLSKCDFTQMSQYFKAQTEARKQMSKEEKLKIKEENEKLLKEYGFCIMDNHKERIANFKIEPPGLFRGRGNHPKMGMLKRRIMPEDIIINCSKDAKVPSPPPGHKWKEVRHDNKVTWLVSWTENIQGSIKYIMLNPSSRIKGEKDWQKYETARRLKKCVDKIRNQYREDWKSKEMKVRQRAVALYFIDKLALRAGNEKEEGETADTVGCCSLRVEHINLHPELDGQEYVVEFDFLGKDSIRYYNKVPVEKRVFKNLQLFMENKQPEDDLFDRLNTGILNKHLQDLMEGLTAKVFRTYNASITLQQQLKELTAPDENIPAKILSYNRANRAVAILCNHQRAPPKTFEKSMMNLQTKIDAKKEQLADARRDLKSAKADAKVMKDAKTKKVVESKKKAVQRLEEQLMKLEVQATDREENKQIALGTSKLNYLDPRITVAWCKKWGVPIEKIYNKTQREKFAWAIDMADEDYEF
The experiment in a line: Inhibition of human DNA topoisomerase 1 at 100 uM.

The species named for test [5] is Homo sapiens. As to the kind of experiment: Inhibition of human DNA topoisomerase 2 at 100 uM.
Another test has as its system Brassica oleracea. The experiment in a line: Inhibition of cauliflower DNA polymerase beta at 100 uM.
For test [6], the species on record is Homo sapiens. The experiment in a line: Inhibition of human DNA polymerase epsilon at 100 uM.
In test [7] the target is Inosine-5'-monophosphate dehydrogenase 2 (Mus musculus) (UniProt P24547). As to the kind of experiment: Inhibition of mouse IMP dehydrogenase 2 at 100 uM.

The structures appear in SMILES notation. Active and inactive are the calls of the source. The calls are words filed in the database; no cut-off is given here.

Polynucleotide kinase (Enterobacteria phage T4), sequence (P06855 whole entry): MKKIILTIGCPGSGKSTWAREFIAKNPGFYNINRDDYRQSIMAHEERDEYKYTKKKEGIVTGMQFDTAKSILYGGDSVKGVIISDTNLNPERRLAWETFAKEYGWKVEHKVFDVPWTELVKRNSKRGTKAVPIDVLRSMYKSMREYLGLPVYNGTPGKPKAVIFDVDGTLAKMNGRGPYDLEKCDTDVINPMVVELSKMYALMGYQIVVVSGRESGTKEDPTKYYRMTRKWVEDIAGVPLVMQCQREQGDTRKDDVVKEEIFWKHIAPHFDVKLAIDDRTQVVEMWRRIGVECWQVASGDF
Inosine-5'-monophosphate dehydrogenase 2 (Mus musculus), sequence (P24547 whole entry, looked up): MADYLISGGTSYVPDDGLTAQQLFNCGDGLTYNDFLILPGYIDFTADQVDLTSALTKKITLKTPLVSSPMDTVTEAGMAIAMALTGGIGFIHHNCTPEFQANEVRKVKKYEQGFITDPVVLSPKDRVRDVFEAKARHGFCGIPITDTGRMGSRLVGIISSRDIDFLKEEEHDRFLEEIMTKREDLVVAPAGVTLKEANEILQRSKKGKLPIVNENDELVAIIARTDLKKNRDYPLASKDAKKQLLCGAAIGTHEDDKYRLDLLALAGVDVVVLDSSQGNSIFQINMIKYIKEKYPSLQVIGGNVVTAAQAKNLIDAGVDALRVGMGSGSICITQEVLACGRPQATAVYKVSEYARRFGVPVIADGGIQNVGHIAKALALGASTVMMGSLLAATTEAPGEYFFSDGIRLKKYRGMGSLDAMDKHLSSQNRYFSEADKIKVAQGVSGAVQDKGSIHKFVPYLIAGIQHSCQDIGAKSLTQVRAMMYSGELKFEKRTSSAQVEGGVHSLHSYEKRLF
Deoxyribonuclease-1 (Bos taurus), sequence (P00639 whole entry): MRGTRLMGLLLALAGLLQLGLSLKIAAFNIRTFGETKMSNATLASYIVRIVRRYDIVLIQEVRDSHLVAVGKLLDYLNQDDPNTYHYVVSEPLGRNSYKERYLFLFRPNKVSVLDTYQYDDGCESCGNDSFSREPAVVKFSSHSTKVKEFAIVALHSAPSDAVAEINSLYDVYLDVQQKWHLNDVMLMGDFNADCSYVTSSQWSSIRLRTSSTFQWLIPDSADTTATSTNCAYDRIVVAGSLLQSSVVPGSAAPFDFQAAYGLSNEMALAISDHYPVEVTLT

What is called IC50 is the midpoint of a concentration-inhibition curve. A low value points to greater potency in that assay. In the case of `COc1cc(O)c2c(=O)oc3c(c2c1)C(C)CC3=O` (stereo not given), in [1], the outcome was Active. The outcome (in test [2]; in [3]; in [4]; in the test filed under Homo sapiens [5]; in the test on Brassica oleracea; in the test filed under Homo sapiens [6]) was inactive. Further, the result in test [7] was inactive. In addition, the figures for the IC50 against DNA polymerase beta and at DNA polymerase kappa were 11.9 µM and 59.8 µM, respectively.
As to `COc1cc(O)c2c(c1)C1(OC2=O)C(C)=CC(=O)C1O` (stereo not given) [TALAROFLAVONE], in [1], the outcome was Active. The result (in test [2]; in test [3]; in [4]; in the test filed under Homo sapiens [5]; in the test with Brassica oleracea; in the test listed under Homo sapiens [6]) was inactive. Besides, the outcome in test [7] was inactive. Also, the IC50 at DNA polymerase beta came out at 16.3 µM; at DNA polymerase kappa, 86.5 µM.

Values taken from ChEMBL document CHEMBL1143937, “1-deoxyrubralactone, a novel specific inhibitor of families X and Y of eukaryotic DNA polymerases from a fungal strain derived from sea algae” (Bioorg Med Chem, 2008).
